The text below walks through data of paper PMC7215599, “Synthesis, Antitumor Evaluation, Molecular Modeling and Quantitative Structure–Activity Relationship (QSAR) of Novel 2-[(4-Amino-6-N-substituted-1,3,5-triazin-2-yl)methylthio]-4-chloro-5-methyl-N-(1H-benzo[d]imidazol-2(3H)-ylidene)Benzenesulfonamides” (International Journal of Molecular Sciences, 2020).

Test [1] has as its system HaCaT (non-cancerous keratinocyte cell line). The experiment in a line: MTT cell viability assay, HaCaT. The test is classed as cell-based. The conditions noted are these: Homo sapiens, 72 h, 1-100 µM, mean ± SD, non-cancerous cells. As to the method: (§1) Compounds 6–49 were evaluated in vitro for their effects on the viability of the three human cancer cell lines: HCT-116 (colon cancer), MCF-7 (breast cancer) and HeLa (cervical cancer) as well as the non-cancerous keratinocyte cell line (HaCaT). The concentration required for 50% inhibition of cell viability IC50 was calculated and compared with the reference drug cisplatin, the results are shown in Table 1.
(§2) Cell lines: colon cancer (HCT-116), breast cancer (MCF-7), cervical cancer (HeLa), the human keratinocyte cell line (HaCaT); NT—not tested; IC50 was measured at concentrations 1, 10, 25, 50, and 100 µM. IC50 values are expressed as the mean ± SD of at last three independent experiments.
(§3) All chemicals, if not stated otherwise, were obtained from Sigma–Aldrich (St. Louis, MO, USA). The HCT-116 cell lines was purchased from ATCC (ATCC-No: CCL-247), while the MCF-7, HeLa and HaCaT cell lines were purchased from Cell Lines Services (Eppelheim, Germany). Cells were cultured in Dulbecco’s modified Eagle’s medium (DMEM) supplemented with 10% fetal bovine serum, 2 mM glutamine, 100 units/mL penicillin, and 100 µg/mL streptomycin. Cultures were maintained in a humidified atmosphere with 5% carbon dioxide at 37 °C in an incubator (Heraceus, HeraCell).
(§4) Cell viability was examined using the MTT (3-(4,5-dimethylthiazol-2-yl)-2,5-diphenyltetrazolium bromide) assay. Cells were seeded in 96-well plates at a density of 5 × 10^3 cells/well and treated for 72 h with the tested compounds in the concentration range of 1–100 µM (1, 10, 25, 50 and 100 µM). Then, MTT (0.5 mg/mL) was added to the medium and cells were further incubated for 2 h at 37 °C. In the next stage, cells were lysed with DMSO and the absorbance of the formazan solution was measured at 550 nm with a plate reader (1420 multilabel counter, Victor, Jügesheim, Germany). The experiment was performed in triplicate. Values are expressed as the mean ± SD of at least three independent experiments. Cisplatin was used as a positive control.
(In general: Tetrazolium dyes change colour on reduction, which living cells bring about.)

For test [2], the system named is HeLa (cervical cancer) cell line. In words: MTT cell viability assay, HeLa. It is filed as cell-based, human. The conditions noted are these: for IC50: 72 h, MTT, 1-100 µM, mean ± SD. The protocol:
as §1, §2, §3, §4

The subject of test [3] is HCT-116 (colon cancer) cell line. The experiment in a line: MTT cell viability assay, HCT-116. The test is classed as cell-based, human. The conditions noted are these: for IC50: MTT, 72 h, 1-100 µM, mean ± SD. As to the method:
as §1, §2, §3, §4

For test [4], the system named is MCF-7 (breast cancer) cell line. In words: MTT cell viability assay, MCF-7. The test is classed as cell-based, human. The conditions noted are these: MTT, 72 h, 1-100 µM, mean ± SD. The protocol:
as §1, §2, §3, §4

One may read the IC50 as the point on the concentration scale where inhibition reaches its midpoint. Low readings indicate inhibition by little substance, high ones a need for much substance.

Some results are limits rather than exact numbers.

Turning to `Cc1cc(S(=O)(=O)N=c2[nH]c3ccccc3[nH]2)c(SCc2nc(N)nc(N(C)C)n2)cc1Cl` [Compound 6, 2-{[4-Amino-6-(dimethylamino)-1,3,5-triazin-2-yl]methylthio}-N-(1H-benzo[d]imidazol-2(3H)-ylidene)-4-chloro-5-methylbenzenesulfonamide], the concentration for half-maximal inhibition (IC50) was 57 ± 3 µM in test [1]; 50 ± 2 µM in test [2] (Homo sapiens, HeLa); 49 ± 1 µM in test [3] (Homo sapiens, HCT-116, 72 h); 52 ± 1 µM in test [4] (Homo sapiens, MCF7, 72 h).
Take `Cc1cc(S(=O)(=O)N=c2[nH]c3ccccc3[nH]2)c(SCc2nc(N)nc(N3CCOCC3)n2)cc1Cl` [Compound 7, 2-[(4-Amino-6-morpholino-1,3,5-triazin-2-yl)methylthio]-N-(1H-benzo[d]imidazol-2(3H)-ylidene)-4-chloro-5-methylbenzenesulfonamide]: the half-inhibitory concentration (IC50) in test [1] was 102 ± 4 µM; in test [2] (Homo sapiens, HeLa), greater than 100 µM; in test [2], 86 ± 3 µM; in test [3] (Homo sapiens, HCT-116, 72 h) it was 75 ± 3 µM; in test [4] (Homo sapiens, MCF7, 72 h), greater than 100 µM; in test [4] it was 99 ± 3 µM.
Take `CC1=NN(c2nc(N)nc(CSc3cc(Cl)c(C)cc3S(=O)(=O)N=c3[nH]c4ccccc4[nH]3)n2)C(C)(C)C1` [Compound 8, 2-{[4-Amino-6-(3,5,5-trimethyl-4,5-dihydro-1H-pyrazol-1-yl)-1,3,5-triazin-2-yl]metylthio}-N-(1H-benzo[d]imidazol-2(3H)-ylidene)-4-chloro-5-methylbenzenesulfonamide]: the IC50 in test [1] was 43 ± 2 µM; in test [2] (Homo sapiens, HeLa) it was 31 ± 2 µM; in test [3] (Homo sapiens, HCT-116, 72 h), 23 ± 1 µM; in test [4] (Homo sapiens, MCF7, 72 h), 34 ± 2 µM.
For the molecule `Cc1cc(S(=O)(=O)N=c2[nH]c3ccccc3[nH]2)c(SCc2nc(N)nc(N3CCCc4ccccc43)n2)cc1Cl` [Compound 10, 2-{[4-Amino-6-(3,4-dihydroquinolin-1(2H)-yl)-1,3,5-triazin-2-yl]methylthio}-N-(1H-benzo[d]imidazol-2(3H)-ylidene)-4-chloro-5-methylbenzenesulfonamide], the IC50 in test [1] is 45 ± 2 µM; in test [2] (Homo sapiens, HeLa), 30 ± 1 µM; in test [3] (Homo sapiens, HCT-116, 72 h), 32 ± 3 µM; in test [4] (Homo sapiens, MCF7, 72 h), 25 ± 1 µM.
With `Cc1cc(S(=O)(=O)N=c2[nH]c3ccccc3[nH]2)c(SCc2nc(N)nc(Nc3ccccc3)n2)cc1Cl` [Compound 11, 2-{[4-Amino-6-(phenylamino)-1,3,5-triazin-2-yl]methylthio}-N-(1H-benzo[d]imidazol-2(3H)-ylidene)-4-chloro-5-methylbenzenesulfonamide], the IC50 was found to be 58 ± 2 µM in test [1]; 39 ± 1 µM in test [2] (Homo sapiens, HeLa); 37 ± 2 µM in test [3] (Homo sapiens, HCT-116, 72 h); 41 ± 1 µM in test [4] (Homo sapiens, MCF7, 72 h).
On the same counts, the results for `Cc1cc(S(=O)(=O)N=c2[nH]c3ccccc3[nH]2)c(SCc2nc(N)nc(Nc3ccc(F)cc3)n2)cc1Cl` [Compound 12, 2-[{4-Amino-6-[(4-fluorophenyl)amino]-1,3,5-triazin-2-yl}metylthio]-N-(1H-benzo[d]imidazol-2(3H)-ylidene)-4-chloro-5-methylbenzenesulfonamide] are 43 ± 2 µM, 36 ± 2 µM, 36 ± 1 µM and 35 ± 2 µM.
For the molecule `Cc1cc(S(=O)(=O)N=c2[nH]c3ccccc3[nH]2)c(SCc2nc(N)nc(Nc3ccc(Cl)cc3)n2)cc1Cl` [Compound 13, 2-[{4-Amino-6-[(4-chlorophenyl)amino]-1,3,5-triazin-2-yl}metylthio]-N-(1H-benzo[d]imidazol-2(3H)-ylidene)-4-chloro-5-methylbenzenesulfonamide], the half-inhibitory concentration (IC50) in test [1] worked out at 41 ± 2 µM; in test [2] (Homo sapiens, HeLa), 35 ± 1 µM; in test [3] (Homo sapiens, HCT-116, 72 h), 32 ± 1 µM; in test [4] (Homo sapiens, MCF7, 72 h), 24 ± 1 µM.
With `COc1ccc(Nc2nc(N)nc(CSc3cc(Cl)c(C)cc3S(=O)(=O)N=c3[nH]c4ccccc4[nH]3)n2)cc1` [Compound 14, 2-[{4-Amino-6-[(4-methoxyphenyl)amino]-1,3,5-triazin-2-yl}metylthio]-N-(1H-benzo[d]imidazol-2(3H)-ylidene)-4-chloro-5-methylbenzenesulfonamide], the IC50 was 65 ± 3 µM in test [1]; 56 ± 2 µM in test [2] (Homo sapiens, HeLa); 54 ± 2 µM in test [3] (Homo sapiens, HCT-116, 72 h); 41 ± 1 µM in test [4] (Homo sapiens, MCF7, 72 h).
In the case of `Cc1cc(S(=O)(=O)N=c2[nH]c3ccccc3[nH]2)c(SCc2nc(N)nc(NCc3ccccc3)n2)cc1Cl` [Compound 15, 2-{[4-Amino-6-(benzylamino)-1,3,5-triazin-2-yl]metylthio}-N-(1H-benzo[d]imidazol-2(3H)-ylidene)-4-chloro-5-methylbenzenesulfonamide], the concentration for half-maximal inhibition (IC50) is greater than 100 µM in test [2] (Homo sapiens, HeLa); 92 ± 2 µM in test [2]; 22 ± 1 µM in test [3] (Homo sapiens, HCT-116, 72 h); 27 ± 1 µM in test [4] (Homo sapiens, MCF7, 72 h).
`Cc1cc(S(=O)(=O)N=c2[nH]c3ccccc3[nH]2)c(SCc2nc(N)nc(N(C)c3ccccc3)n2)cc1Cl` [Compound 16, 2-[{4-Amino-6-[methyl(phenyl)amino]-1,3,5-triazin-2-yl}metylthio]-N-(1H-benzo[d]imidazol-2(3H)-ylidene)-4-chloro-5-methylbenzenesulfonamide]: the IC50 stood at 45 ± 2 µM in test [1]; 33 ± 1 µM in test [2] (Homo sapiens, HeLa); 33 ± 1 µM in test [3] (Homo sapiens, HCT-116, 72 h); 32 ± 1 µM in test [4] (Homo sapiens, MCF7, 72 h).
Turning to `Cc1cc(S(=O)(=O)N=c2[nH]c3ccccc3[nH]2)c(SCc2nc(N)nc(N(C)c3ccc(Cl)cc3)n2)cc1Cl` [Compound 17, 2-[{4-Amino-6-[(4-chlorophenyl)(methyl)amino]-1,3,5-triazin-2-yl}methylthio]-N-(1H-benzo[d]imidazol-2(3H)-ylidene)-4-chloro-5-methylbenzenesulfonamide], the concentration for half-maximal inhibition (IC50) in test [1] came to 43 ± 2 µM; in test [2] (Homo sapiens, HeLa) it was 30 ± 1 µM; in test [3] (Homo sapiens, HCT-116, 72 h), 29 ± 1 µM; in test [4] (Homo sapiens, MCF7, 72 h), 31 ± 1 µM.
As to `Cc1cc(S(=O)(=O)N=c2[nH]c3ccccc3[nH]2)c(SCc2nc(N)nc(N3CCN(c4ccccc4F)CC3)n2)cc1Cl` [Compound 21, 2-[{4-Amino-6-[4-(2-fluorophenyl)piperazin-1-yl]-1,3,5-triazin-2-yl}metylthio]-N-(1H-benzo[d]imidazol-2(3H)-ylidene)-4-chloro-5-methylbenzenesulfonamide], the half-inhibitory concentration (IC50) in test [1] was found to be 32 ± 1 µM; in test [2] (Homo sapiens, HeLa) it was 17 ± 0.5 µM; in test [3] (Homo sapiens, HCT-116, 72 h) it was 15 ± 1 µM; in test [4] (Homo sapiens, MCF7, 72 h), 24 ± 1 µM.
For `Cc1cc(S(=O)(=O)N=c2[nH]c3ccccc3[nH]2)c(SCc2nc(N)nc(N3CCN(c4ccc(C(F)(F)F)cc4)CC3)n2)cc1Cl` [Compound 22, 2-{[4-Amino-6-{4-[4-(trifluoromethyl)phenyl]piperazin-1-yl}-1,3,5-triazin-2-yl]methylthio}-N-(1H-benzo[d]imidazol-2(3H)-ylidene)-4-chloro-5-methylbenzenesulfonamide], the IC50 in test [1] was 34 ± 1 µM; in test [2] (Homo sapiens, HeLa), 11 to 18 µM; in test [2] it was 11 ± 0.5 µM; in test [3] (Homo sapiens, HCT-116, 72 h), 7 to 11 µM; in test [3], 11 ± 0.5 µM; in test [4] (Homo sapiens, MCF7, 72 h), 15 to 24 µM. For the same molecule, half-maximal inhibition in test [4] (IC50) was put at 24 ± 1 µM. The “selectivity ratio HaCaT/HeLa” value in test [2] (ratio of IC50 values) came to 3.1. Besides, the “selectivity ratio HaCaT/HCT-116” value in test [3] (ratio of IC50 values) came out at 3.1.
With `Cc1cc(S(=O)(=O)N=c2[nH]c3ccccc3[nH]2)c(SCc2nc(N)nc(N3CCN(c4cccc(Cl)c4)CC3)n2)cc1Cl` [Compound 24, 2-[{4-Amino-6-[4-(3-chlorophenyl)piperazin-1-yl]-1,3,5-triazin-2-yl}methylthio]-N-(1H-benzo[d]imidazol-2(3H)-ylidene)-4-chloro-5-methylbenzenesulfonamide], the concentration for half-maximal inhibition (IC50) in test [1] turned out to be 42 ± 2 µM; in test [2] (Homo sapiens, HeLa), 27 ± 0.5 µM; in test [3] (Homo sapiens, HCT-116, 72 h), 17 ± 1 µM; in test [4] (Homo sapiens, MCF7, 72 h), 20 ± 0.6 µM.
For the molecule `Cc1cc(S(=O)(=O)N=c2[nH]c3ccccc3[nH]2)c(SCc2nc(N)nc(N3CCN(c4ccc([N+](=O)[O-])cc4)CC3)n2)cc1Cl` [Compound 29, 2-[{4-Amino-6-[4-(4-nitrophenyl)piperazin-1-yl]-1,3,5-triazin-2-yl}metylthio]-N-(1H-benzo[d]imidazol-2(3H)-ylidene)-4-chloro-5-methylbenzenesulfonamide], the concentration for half-maximal inhibition (IC50) in test [2] (Homo sapiens, HeLa) was greater than 100 µM; in test [2], 56 ± 2 µM; in test [3] (Homo sapiens, HCT-116, 72 h) it was greater than 100 µM; in test [3], 195 ± 4 µM; in test [4] (Homo sapiens, MCF7, 72 h), greater than 100 µM; in test [4], 134 ± 9 µM.
As to `N.N.[Cl][Pt][Cl]` [cisplatin, reference compound], the IC50 in test [2] amounted to 3.8 ± 0.2 µM; in test [3], 2.2 ± 0.1 µM; in test [4], 3 ± 0.1 µM.
